One block for each molecule: values may come before it.
Key:
K562 [1] = test: Antiproliferative activity against human K562 Cells; assay type: functional, cell-based
HepG2 [2] = test: Cytotoxicity against human HepG2 Cells; assay type: functional, cell-based
HeLa [3] = test: Cytotoxicity against human HeLa Cells; assay type: functional, cell-based
THP-1 = test: Cytotoxicity against human THP1 Cells; assay type: functional, cell-based
L02 [4] = test: Cytotoxicity against human LO2 Cells; assay type: functional, cell-based
HepG2 [5] = test: Cytotoxicity against human HepG2 Cells by MTT/Trypan Blue Exclusion Assay; assay type: functional, cell-based
SK-OV-3 [6] = test: Cytotoxicity against human SKOV3 Cells after 24 hrs by MTT assay; assay type: functional, cell-based; settings: SK-OV-3, 24 h
MGC-803 [7] = test: Cytotoxicity against human MGC803 cells; assay type: functional, cell-based
PC-3 [8] = test: Cytotoxicity against human PC3 cells; assay type: functional, cell-based
Bcap37 = test: Cytotoxicity against human Bcap37 cells; assay type: functional, cell-based
[9] = Antiproliferative activity against human K562/G01 cells; assay type: functional, cell-based
SW480 = test: Cytotoxicity against human SW480 Cells after 24 to 48 hrs by MTT assay; assay type: functional, cell-based
K562 [10] = test: Cytotoxicity against human K562 Cells after 24 to 48 hrs by MTT assay; assay type: functional, cell-based
A549 [11] = test: Cytotoxicity against human A549 Cells after 24 to 48 hrs by MTT assay; assay type: functional, cell-based
KBM5 = test: Growth inhibition of human KBM5 cells relative to control; assay type: functional
MCF7 [12] = test: Induction of apoptosis in human MCF7 cells; assay type: functional, cell-based
A549 [13] = test: Cytotoxicity against human A549 Cells by MTT assay; assay type: functional, cell-based
AGS [14] = test: Cytotoxicity against human AGS Cells by MTT assay; assay type: functional, cell-based
MCF7 [15] = test: Cytotoxicity against human MCF7 Cells after 48 hrs by MTS assay; assay type: functional, cell-based; settings: MCF7, 48 h
[16] = Cytotoxicity against human CCD-1059SK Cells after 48 hrs by MTS assay; assay type: functional
SW-620 = test: Cytotoxicity against human SW620 Cells; assay type: functional, cell-based
PC-3 [17] = test: Anticancer activity against human PC3 cells; assay type: functional, cell-based
DU-145 = test: Anticancer activity against human DU145 cells; assay type: functional, cell-based
SGC-7901 [18] = test: Antiproliferative activity against human SGC7901 cells after 24 hrs by MTT assay; assay type: functional, cell-based; settings: SGC-7901, 24 h
BGC-823 [19] = test: Antiproliferative activity against human BGC823 cells after 24 hrs by MTT assay; assay type: functional, cell-based; settings: BGC-823, 24 h
MGC-803 [20] = test: Antiproliferative activity against human MGC803 cells after 24 hrs by MTT assay; assay type: functional, cell-based; settings: MGC-803, 24 h
CT26 = test: Cytotoxicity against mouse CT26 cells; assay type: functional, cell-based
A549 [21] = test: Cytotoxicity against human A549 Cells after 24 hrs by MTT assay; assay type: functional, cell-based; settings: A549, 24 h
HL-60 = test: Cytotoxicity against human HL60 cells; assay type: functional, cell-based
HSC-2 = test: Cytotoxicity against human HSC2 cells; assay type: functional, cell-based
HSC-3 = test: Cytotoxicity against human HSC3 cells; assay type: functional, cell-based
HSC-4 = test: Cytotoxicity against human HSC4 cells; assay type: functional, cell-based
MCF7 [22] = test: Cytotoxicity against human MCF7 cells; assay type: functional, cell-based
MDA-MB-231 [23] = test: Cytotoxicity against human MDA-MB-231 cells; assay type: functional, cell-based
[24] = Cytotoxicity against human GBM6 Cells 48 hrs by MTS assay; assay type: functional; settings: GBM6, 48 h
U373 MG = test: Cytotoxicity against human U373MG Cells 48 hrs by MTS assay; assay type: functional, cell-based, U-373MG ATCC
U-87 MG = test: Cytotoxicity against human U87MG Cells 48 hrs by MTS assay; assay type: functional, cell-based, U-87MG ATCC
U-251 = test: Cytotoxicity against human U251MG cells after 48 hrs by MTS assay; assay type: functional, cell-based; settings: U-251, 48 h
[25] = Cytotoxicity against human GBM5 Cells 48 hrs by MTS assay; assay type: functional
[26] = Cytotoxicity against human GBM3 Cells 48 hrs by MTS assay; assay type: functional; settings: GBM3, 48 h
[27] = Cytotoxicity against human GBM4 Cells 48 hrs by MTS assay; assay type: functional
[28] = Cytotoxicity against human GBM2 Cells 48 hrs by MTS assay; assay type: functional; settings: GBM2, 48 h
[29] = Cytotoxicity against human GBM1 Cells 48 hrs by MTS assay; assay type: functional; settings: GBM1, 48 h
HeLa [30] = test: Anticancer activity against human HeLa cells; assay type: functional, cell-based
SK-OV-3 [31] = test: Cytotoxicity against human SKOV3 Cells after 48 hrs by Cell Titer Blue assay; assay type: functional, cell-based; settings: SK-OV-3, 48 h
Caco-2 = test: Cytotoxicity against human Caco2 Cells after 72 hrs by MTT assay; assay type: functional, cell-based; settings: Caco-2, 72 h
EA.hy 926 = test: Cytotoxicity against human EAhy926 Cells after 72 hrs by MTT assay; assay type: functional, cell-based; settings: EA.hy 926, 72 h
HT-29 [32] = test: Cytotoxicity against human HT-29 Cells after 72 hrs by MTT assay; assay type: functional, cell-based; settings: HT-29, 72 h
HepG2 [33] = test: Cytotoxicity against human HepG2 Cells after 72 hrs by MTT assay; assay type: functional, cell-based; settings: HepG2, 72 h
CHO-K1 = test: Cytotoxicity against […] Cells after 72 hrs by MTT assay; assay type: functional, cell-based; settings: Cricetulus griseus, CHO-K1, 72 h
[34] = Anticancer activity against human LX2 cells after 72 hrs by MTT assay; assay type: functional, cell-based; settings: LX-2, 72 h
SMMC-7721 = test: Anticancer activity against human SMMC7721 cells after 72 hrs by MTT assay; assay type: functional, cell-based; settings: SMMC-7721, 72 h
MDA-MB-231 [35] = test: Anticancer activity against human MDA-MB-231 cells after 72 hrs by MTT assay; assay type: functional, cell-based; settings: MDA-MB-231, 72 h
HT-29 [36] = test: Cytotoxicity against human HT-29 Cells; assay type: functional, cell-based
MCF7 [37] = test: Cytotoxicity against human MCF7 Cells after 48 hrs by MTT assay; assay type: functional, cell-based; settings: MCF7, 48 h
HepG2 [38] = test: Cytotoxicity against human HepG2 Cells after 48 hrs by MTT assay; assay type: functional, cell-based; settings: HepG2, 48 h
[39] = Cytotoxicity against human LX2 Cells after 48 hrs by MTT assay; assay type: functional; settings: LX-2, 48 h
NIH3T3 = test: Cytotoxicity against mouse 3T3 Cells after 48 hrs by MTT assay; assay type: functional, cell-based; settings: NIH3T3, 48 h
AGS [40] = test: Cytotoxicity against human AGS Cells; assay type: functional, cell-based
HCT-116 [41] = test: Cytotoxicity against human HCT116 Cells; assay type: functional, cell-based
HCT-116 [42] = test: Growth inhibition of human HCT116 cells relative to control; assay type: functional
[43] = Cytotoxicity against mitoxantrone resistant […] cells expressing BCRP after 15 mins by fluorescence assay; assay type: functional, cell-based; settings: Canis lupus familiaris, MDCK2, 0.25 h
HEp-2 = test: Cytotoxicity against human Hep2 Cells; assay type: functional, cell-based
L02 [44] = test: Cytotoxicity against human HL-7702 cells; assay type: functional, cell-based
SGC-7901 [45] = test: Cytotoxicity against human SGC7901 cells; assay type: functional, cell-based
BGC-823 [46] = test: Cytotoxicity against human BGC823 cells; assay type: functional, cell-based
GES1 = test: Cytotoxicity against human GES-1 cells; assay type: functional, cell-based
BXPC-3 = test: Cytotoxicity against human BxPC3 cells; assay type: functional, cell-based
NCI-H1299 = test: Cytotoxicity against human H1299 cells; assay type: functional, cell-based
RWPE-1 = test: Cytotoxicity against human RWPE1 cells; assay type: functional, cell-based
[47] = target: Tyrosine-protein kinase ABL1 (Homo sapiens, UniProt P00519, Q252H); test: Inhibition of ABL Q252H mutant (unknown origin)
[48] = target: Tyrosine-protein kinase ABL1 (Homo sapiens, UniProt P00519, Y253F); test: Inhibition of ABL Y253F mutant (unknown origin)
[49] = target: Tyrosine-protein kinase ABL1 (Homo sapiens, UniProt P00519); test: Inhibition of Wild type ABL (unknown origin)
[50] = target: Tyrosine-protein kinase ABL1 (Homo sapiens, UniProt P00519, T315I); test: Inhibition of ABL T315I mutant (unknown origin)

- IC50 (K562 [1]): 4.8 µM
SMILES: C/C(=C/C(=O)c1ccccc1)Nc1cccc(/C=C2\CN(C)C/C(=C\c3cccc(N/C(C)=C/C(=O)c4ccccc4)c3)C2=O)c1
- IC50 (HepG2 [2]): 5.52 µM
- IC50 (HeLa [3]): > 10 µM
- IC50 (THP-1): 1.17 µM
- IC50 (L02 [4]): 13.1 µM

- IC50 (K562 [1]): 1.42 µM
SMILES: COc1cccc2c1C(=O)c1c(O)c3c(c(O)c1C2=O)C[C@@](O)(C(=O)CO)C[C@@H]3O[C@H]1C[C@H](N)[C@H](O)[C@H](C)O1 [DOXORUBICIN]
- IC50 (HepG2 [5]): 14.7 µM
- IC50 (HepG2 [2]): 0.57 µM
- IC50 (HeLa [3]): 2.02 µM
- IC50 (THP-1): 0.3 µM
- IC50 (L02 [4]): 6.93 µM

SMILES: COc1cc(/C=C/C2=NN(c3nc(/N=C4/CC[C@H]5[C@@H]6CC[C@H]7C[C@@H](OC(C)=O)CC[C@]7(C)[C@H]6CC[C@]45C)cc(=O)[nH]3)C(/C=C/c3cc(OC)cc(OC)c3)C2)cc(OC)c1 (some centres undefined)
- IC50 (SK-OV-3 [6]): 2.5 µM

SMILES: Cc1ccc2ncnc(Oc3ccccc3/C=C/C(=O)/C=C/c3c(Cl)cccc3Cl)c2c1
- IC50 (MGC-803 [7]): 0.85 µM
- IC50 (PC-3 [8]): 1.37 µM
- IC50 (Bcap37): 4.98 µM

SMILES: COc1cc(/C=C/C(=O)C(=Cc2ccncc2)C(=O)/C=C/c2ccc(O)c(OC)c2)ccc1O
- IC50 [9]: 0.6 µM
- IC50 (K562 [1]): 1.1 µM

- IC50 (MCF7 [12]): 17.1 µM
- IC50 (PC-3 [17]): 20.9 µM
- IC50 (DU-145): 31.7 µM
- IC50 (SGC-7901 [18]): > 20 µM
- IC50 (BGC-823 [19]): > 20 µM
- IC50 (MGC-803 [20]): > 20 µM
- IC50 (HeLa [30]): 4.33 µM
- IC50 (SMMC-7721): 12.6 µM
- IC50 (MDA-MB-231 [35]): 11.5 µM
SMILES: COc1cc(/C=C/C(=O)CC(=O)/C=C/c2ccc(O)c(OC)c2)ccc1O [CURCUMIN]
- IC50 (SW480): 15 to 17 µM
- IC50 (K562 [10]): 36 to 38 µM
- IC50 (A549 [11]): 28 to 30 µM
- growth inhibition (GI) (KBM5): 46%
- IC50 (A549 [13]): 25.3 µM
- IC50 (AGS [14]): 20.8 µM
- IC50 (MCF7 [15]): 68.2 µM
- IC50 [16]: 133 µM
- IC50 (SW-620): > 50 µM
- IC50 (CT26): > 20 µM
- IC50 (A549 [21]): 52.3 µM
- IC50 (HL-60): 6.3 µM
- IC50 (HSC-2): 7.8 µM
- IC50 (HSC-3): 11 µM
- IC50 (HSC-4): 7.1 µM
- IC50 (MCF7 [22]): 22.5 µM
- IC50 (MDA-MB-231 [23]): 26.5 µM
- IC50 [24]: > 50 µM
- IC50 (U373 MG): > 50 µM
- IC50 (U-87 MG): 7.15 µM
- IC50 (U-251): 15.3 µM
- IC50 [25]: > 50 µM
- IC50 [26]: > 50 µM
- IC50 [27]: > 50 µM
- IC50 [28]: > 50 µM
- IC50 [29]: 39.6 µM
- IC50 (SK-OV-3 [31]): 6.7 µM
- IC50 (Caco-2): 28 µM
- IC50 (EA.hy 926): 20 µM
- IC50 (HT-29 [32]): 23.4 µM
- IC50 (HepG2 [33]): 20.3 to 24.9 µM
- IC50 (CHO-K1): 21.3 µM
- IC50 [34]: 14 µM
- IC50 (HT-29 [36]): 18.7 to 66.9 µM
- IC50 (MCF7 [37]): 9.28 µM
- IC50 (HepG2 [38]): 9.44 µM
- IC50 [39]: 9.14 µM
- IC50 (NIH3T3): 9.51 µM
- IC50 (AGS [40]): 9.77 µM
- IC50 (HCT-116 [41]): 5.51 to 20 µM
- IC50 (HepG2 [2]): 36.8 µM
- IC50 (HeLa [3]): 14 to 22.2 µM
- growth inhibition (GI) (HCT-116 [42]): 46.87%
- IC50 [43]: 32 µM
- IC50 (HEp-2): 21.4 µM
- IC50 (L02 [44]): 32.3 µM
- IC50 (SGC-7901 [45]): 22.5 µM
- IC50 (BGC-823 [46]): 17.5 µM
- IC50 (MGC-803 [7]): 21.2 µM
- IC50 (GES1): 29.1 µM
- IC50 (PC-3 [8]): 20 µM
- IC50 (BXPC-3): 18.2 µM
- IC50 (NCI-H1299): 18.9 µM
- IC50 (RWPE-1): 15.6 µM

- IC50 [47]: 0.185 µM
- IC50 [48]: 0.0798 µM
- IC50 [49]: 0.0833 µM
- IC50 [50]: 0.0673 µM
SMILES: COc1cc(C=C(C(=O)/C=C/c2ccc(O)c(OC)c2)C(=O)/C=C/c2ccc(O)c(OC)c2)ccc1O

Reference: ChEMBL document CHEMBL4364241, “Developments in the anticancer activity of structurally modified curcumin: An up-to-date review” (Eur J Med Chem, 2019)
